Measured values: patent publication US7989482B2, “Indoline anti-cancer agents” (Joyant Pharmaceuticals, Inc., priority 2008, dated 2011)
Read-outs that look alike come from different tables or passages of the source.

What was measured:
[1] = system: U937 cells; assay: Cell viability assay (CELL-TITER-GLO) in U937 cells; format: cell-based; conditions: Homo sapiens, U937 cells, 48 hour treatment, cell viability, read-out: IC50 (μM) U937
Description: (§1) Cell viability assays were run using standard protocols known to those of skill in art. Cells were plated in 96 well plates at the density of 3,000-10,000 cells per well. Twenty four hours later, cells were treated with increasing concentration of test compounds (1 nM to 1 μM). After another 48 hour, cell survival was measured using CELL-TITER-GLO® reagent (Promega) following the protocol provided by the manufacture. The IC50 value was determined as the concentration of test compound that kills 50% of the cell population.
(§2) Cell viability data generated according to the protocol described in Example 97 was generated for representative compounds in A2058 and U937 cells.

[2] = system: A2058 cells; assay: Cell viability assay (CELL-TITER-GLO) in A2058 cells; format: cell-based; conditions: Homo sapiens, A2058 cells, 48 hour treatment, cell viability, read-out: IC50 (μM) A2058
Description: as §1, §2

IC50 ([1]; U-937) [µM] | Compound | IC50 ([1]; U-937, 48 h) [µM] | IC50 ([2]; A2058, 48 h) [µM] | IC50 [2] [µM]
 | CC(C)[C@H](O)C(=O)N[C@H]1Cc2ccc3c(c2)[C@]24C5=C(N=C(O5)[C@H](C(C)C)NC1=O)c1ncc(o1)-c1c[nH]c5cccc(c15)-c1cccc2c1NC4O3 (stereo partly drawn) [Cpd J, reference compound] | 0.026 | 0.039 | 
 | COC(=O)c1nc2oc1[C@@]13c4ccccc4NC1Oc1ccc(cc13)CC(N)C(=O)N[C@H]2C(C)C (stereo partly drawn) [Example 3] | > 1 | > 1 | 
> 1 | COC(=O)c1nc2oc1[C@@]13c4ccccc4NC1Oc1ccc(cc13)CC(NC(=O)OCc1ccccc1)C(=O)N[C@H]2C(C)C (stereo partly drawn) [Example 4] |  |  | > 1
 | COC(=O)c1nc2oc1[C@@]13c4ccccc4NC1Oc1ccc(cc13)C[C@H](NC(=O)[C@@H](O)C(C)C)C(=O)N[C@H]2C(C)C (stereo partly drawn) [Example 6] | > 1 | > 1 | 
 | COC(=O)c1nc2oc1[C@@]13c4ccccc4NC1Oc1ccc(cc13)C[C@H](NC(=O)[C@@H](O)c1ccccc1)C(=O)N[C@H]2C(C)C (stereo partly drawn) [Example 7] | > 1 | > 1 | 
 | [H][C@]1(C(=O)N[C@H]2Cc3ccc4c(c3)C3(C5=C(C(=O)OC)N=C(O5)[C@H](C(C)C)NC2=O)c2ccccc2N[C@H]3O4)CCCO1 (stereo partly drawn) [Example 8] | > 1 | > 1 | 
 | COC(=O)c1nc2oc1C13c4ccccc4N[C@H]1Oc1ccc(cc13)C[C@H](NC(=O)[C@@H](O)CC(C)C)C(=O)N[C@H]2C(C)C (stereo partly drawn) [Example 9] | > 1 | > 1 | 
 | COC(=O)c1nc2oc1C13c4ccccc4N[C@H]1Oc1ccc(cc13)C[C@H](NC(=O)c1cc(OC)c(OC)c(OC)c1)C(=O)N[C@H]2C(C)C (stereo partly drawn) [Example 10] | > 1 | > 1 | 
 | CC(C)[C@H](O)C(=O)N[C@H]1Cc2ccc3c(c2)[C@]2(C4=C(C(=O)NCCc5c[nH]c6ccccc56)N=C(O4)[C@H](C(C)C)NC1=O)c1ccccc1NC2O3 (stereo partly drawn) [Example 11] | > 1 | > 1 | 
> 1 | CC(C)[C@H](O)C(=O)N[C@H]1Cc2ccc3c(c2)[C@]2(C4=C(C(=O)O)N=C(O4)[C@H](C(C)C)NC1=O)c1ccccc1NC2O3 (stereo partly drawn) [Example 12] |  |  | > 1
 | COC(=O)[C@@H]1CCCN1C(=O)c1nc2oc1C13c4ccccc4N[C@H]1Oc1ccc(cc13)C[C@H](NC(=O)[C@@H](O)C(C)C)C(=O)N[C@H]2C(C)C (stereo partly drawn) [Example 13] | > 1 | > 1 | 
 | CC(C)[C@H](O)C(=O)N[C@H]1Cc2ccc3c(c2)C2(C4=C(C(=O)N5CCCC5)N=C(O4)[C@H](C(C)C)NC1=O)c1ccccc1N[C@H]2O3 (stereo partly drawn) [Example 14] | > 1 | > 1 | 
> 1 | CC(C)[C@H](O)C(=O)N[C@H]1Cc2ccc3c(c2)C2(C4=C(C(=O)NCc5ccccc5)N=C(O4)[C@H](C(C)C)NC1=O)c1ccccc1N[C@H]2O3 (stereo partly drawn) [Example 15] |  |  | > 1
 | CC(C)[C@H](O)C(=O)N[C@H]1Cc2ccc3c(c2)C2(C4=C(C(=O)NCC5CCCCC5)N=C(O4)[C@H](C(C)C)NC1=O)c1ccccc1N[C@H]2O3 (stereo partly drawn) [Example 16] | > 1 | > 1 | 
 | CC(C)[C@H](O)C(=O)N[C@H]1Cc2ccc3c(c2)C2(C4=C(C(=O)N[C@@H]5CCCc6ccccc65)N=C(O4)[C@H](C(C)C)NC1=O)c1ccccc1N[C@H]2O3 (stereo partly drawn) [Example 17] | > 1 | > 1 | 
 | CC(C)[C@H](O)C(=O)N[C@H]1Cc2ccc3c(c2)C2(C4=C(C(=O)NCC(c5ccccc5)c5ccccc5)N=C(O4)[C@H](C(C)C)NC1=O)c1ccccc1N[C@H]2O3 (stereo partly drawn) [Example 18] | > 1 | > 1 | 
> 1 | CC(C)[C@H](O)C(=O)N[C@H]1Cc2ccc3c(c2)C2(C4=C(C(=O)NC(c5ccccc5)c5ccccc5)N=C(O4)[C@H](C(C)C)NC1=O)c1ccccc1N[C@H]2O3 (stereo partly drawn) [Example 19] |  |  | > 1
 | CC(C)[C@H](O)C(=O)N[C@H]1Cc2ccc3c(c2)C2(C4=C(C(=O)NCc5ccc(F)cc5)N=C(O4)[C@H](C(C)C)NC1=O)c1ccccc1N[C@H]2O3 (stereo partly drawn) [Example 20] | > 1 | > 1 | 
 | CC(C)[C@H](O)C(=O)N[C@H]1Cc2ccc3c(c2)C2(C4=C(C(=O)N5CCCC5c5ccccc5)N=C(O4)[C@H](C(C)C)NC1=O)c1ccccc1N[C@H]2O3 (stereo partly drawn) [Example 21] | > 1 | > 1 | 
 | CC(C)[C@H](O)C(=O)N[C@H]1Cc2ccc3c(c2)C2(C4=C(C(=O)NC5CCCCC5)N=C(O4)[C@H](C(C)C)NC1=O)c1ccccc1N[C@H]2O3 (stereo partly drawn) [Example 22] | > 1 | > 1 | 
 | CNC(=O)c1nc2oc1C13c4ccccc4N[C@H]1Oc1ccc(cc13)C[C@H](NC(=O)[C@@H](O)C(C)C)C(=O)N[C@H]2C(C)C (stereo partly drawn) [Example 23] | > 1 | > 1 | 

IC50 ([1]; U-937) [µM] | Compound | IC50 ([1]; U-937, 48 h) [µM] | IC50 ([2]; A2058, 48 h) [µM] | IC50 [2] [µM]
 | CC(C)[C@H](O)C(=O)N[C@H]1Cc2ccc3c(c2)C2(C4=C(C(=O)NC(C)(C)C)N=C(O4)[C@H](C(C)C)NC1=O)c1ccccc1N[C@H]2O3 (stereo partly drawn) [Example 24] | > 1 | > 1 | 
 | CCN(CC)C(=O)c1nc2oc1C13c4ccccc4N[C@H]1Oc1ccc(cc13)C[C@H](NC(=O)[C@@H](O)C(C)C)C(=O)N[C@H]2C(C)C (stereo partly drawn) [Example 25] | > 1 | > 1 | 
 | CC(C)[C@H](O)C(=O)N[C@H]1Cc2ccc3c(c2)C2(C4=C(C(=O)N5CCc6ccccc65)N=C(O4)[C@H](C(C)C)NC1=O)c1ccccc1N[C@H]2O3 (stereo partly drawn) [Example 26] | > 1 | > 1 | 
 | CC(C)[C@H](O)C(=O)N[C@H]1Cc2ccc3c(c2)C2(C4=C(C(=O)N5CCN=C5c5ccccc5)N=C(O4)[C@H](C(C)C)NC1=O)c1ccccc1N[C@H]2O3 (stereo partly drawn) [Example 27] | > 1 | > 1 | 
 | CC(C)[C@H](O)C(=O)N[C@H]1Cc2ccc3c(c2)C2(C4=C(C(=O)NC5CCc6ccccc65)N=C(O4)[C@H](C(C)C)NC1=O)c1ccccc1N[C@H]2O3 (stereo partly drawn) [Example 28] | > 1 | > 1 | 
 | CC(C)[C@H](O)C(=O)N[C@H]1Cc2ccc3c(c2)C2(C4=C(C(=O)NCCO)N=C(O4)[C@H](C(C)C)NC1=O)c1ccccc1N[C@H]2O3 (stereo partly drawn) [Example 29] | > 1 | > 1 | 
 | COC(=O)[C@H](CO)NC(=O)c1nc2oc1C13c4ccccc4N[C@H]1Oc1ccc(cc13)C[C@H](NC(=O)[C@@H](O)C(C)C)C(=O)N[C@H]2C(C)C (stereo partly drawn) [Example 30] | > 1 | > 1 | 
 | CC(C)[C@H](O)C(=O)N[C@H]1Cc2ccc3c(c2)[C@]2(C4=C(C(N)=O)N=C(O4)[C@H](C(C)C)NC1=O)c1ccccc1NC2O3 (stereo partly drawn) [Example 31] | > 1 | > 1 | 
 | CC(C)[C@H](O)C(=O)N[C@H]1Cc2ccc3c(c2)C2(C4=C(C(=O)NCC(=O)c5c[nH]c6c(O)cccc56)N=C(O4)[C@H](C(C)C)NC1=O)c1ccccc1N[C@H]2O3 (stereo partly drawn) [Example 32] | > 1 | > 1 | 
 | CC(C)[C@H](O)C(=O)N[C@H]1Cc2ccc3c(c2)C2(C4=C(C(=O)NCC(=O)c5c[nH]c6c(O)cccc56)N=C(O4)[C@H](C(C)C)NC1=O)c1cccc(Br)c1N[C@H]2O3 (stereo partly drawn) [Example 33] | > 1 | > 1 | 
 | CC(C)[C@H](O)C(=O)N[C@H]1Cc2ccc3c(c2)C2(C4=C(C(=O)NCC(=O)c5c[nH]c6ccccc56)N=C(O4)[C@H](C(C)C)NC1=O)c1ccccc1N[C@H]2O3 (stereo partly drawn) [Example 34] | > 1 | > 1 | 
 | COC(=O)c1nc2oc1C13c4ccccc4N[C@H]1Oc1ccc(cc13)C[C@H](NC(=O)[C@@H]1CCCN1)C(=O)NC2C(C)C (stereo partly drawn) [Example 35] | > 1 | > 1 | 
> 1 | COC(=O)c1nc2oc1C13c4ccccc4N[C@H]1Oc1ccc(cc13)C[C@H](NC(=O)[C@@H]1C[C@@H](O)CN1)C(=O)NC2C(C)C (stereo partly drawn) [Example 36] |  |  | > 1
 | COC(=O)c1nc2oc1C13c4cc(ccc4O[C@@H]1N(S(C)(=O)=O)c1ccccc13)C[C@H](NC(=O)[C@@H](O)C(C)C)C(=O)N[C@H]2C(C)C (stereo partly drawn) [Example 37] | > 1 | > 1 | 
 | COC(=O)c1nc2oc1C13c4cc(ccc4O[C@@H]1Nc1c(-c4ccccc4)cccc13)C[C@H](NC(=O)[C@@H](O)C(C)C)C(=O)N[C@H]2C(C)C (stereo partly drawn) [Example 38] | > 1 | > 1 | 
 | COC(=O)c1nc2oc1C13c4cc(ccc4O[C@@H]1Nc1c(-c4cccc5[nH]ccc45)cccc13)C[C@H](NC(=O)[C@@H](O)C(C)C)C(=O)N[C@H]2C(C)C (stereo partly drawn) [Example 39] | > 1 | > 1 | 
 | COC(=O)c1nc2oc1C13c4cc(ccc4O[C@@H]1Nc1c(-c4c(C)cccc4C)cccc13)C[C@H](NC(=O)[C@@H](O)C(C)C)C(=O)N[C@H]2C(C)C (stereo partly drawn) [Example 40] | > 1 | > 1 | 
 | COC(=O)c1nc2oc1C13c4cc(ccc4O[C@@H]1Nc1c(-c4ccncc4)cccc13)C[C@H](NC(=O)[C@@H](O)C(C)C)C(=O)N[C@H]2C(C)C (stereo partly drawn) [Example 41] | > 1 | > 1 | 
 | COC(=O)c1nc2oc1C13c4cc(ccc4O[C@@H]1Nc1c(-c4c(C)c(C)cc(C)c4C)cccc13)C[C@H](NC(=O)[C@@H](O)C(C)C)C(=O)N[C@H]2C(C)C (stereo partly drawn) [Example 42] | > 1 | > 1 | 
 | CC(C)[C@H](O)C(=O)N[C@H]1Cc2ccc3c(c2)C2(C4=C(C5=NCCO5)N=C(O4)[C@H](C(C)C)NC1=O)c1ccccc1N[C@H]2O3 (stereo partly drawn) [Example 43] | 0.697 | 0.533 | 
 | COC(=O)[C@@H]1COC(c2nc3oc2C24c5ccccc5N[C@H]2Oc2ccc(cc24)C[C@H](NC(=O)[C@@H](O)C(C)C)C(=O)N[C@H]3C(C)C)=N1 (stereo partly drawn) [Example 44] | > 1 | > 1 | 
